Publication PMC11206507, “Unraveling the Impact of Six Pentacyclic Triterpenes Regulating Metabolic Pathways on Lung Carcinoma Cells” (Pharmaceuticals, 2024)
Entries after “also recorded” stand apart in the source; their conditions may differ. Where two headings read alike, the source gives them in different places.

How the values were obtained:
Assay type in all cases: cell-based, human
STAT3 gene = assay: RT-qPCR gene expression of STAT3; settings: A549, IC25, 24 h
Method: (§1) A549 cells were seeded into 6-well plates at a density of 1 × 10^6 cells/mL in supplemented DMEM. The cells were incubated with the triterpenes (IC25) for 24 h. Total RNA was extracted from the cells using the TRIzol reagent (Invitrogen Corporation, Carlsbad, CA, USA) according to the manufacturer’s instructions. The purity and concentration of RNA were assessed using a NanoDrop spectrophotometer (Thermo Fisher Scientific). cDNA was synthesized using the High-Capacity cDNA Reverse Transcription Kit (Applied Biosystems) according to the manufacturer’s instructions.
(§2) RT-qPCR was performed on a StepOnePlus® Real-Time PCR System (Thermo Fisher Scientific) using TaqMan Gene Expression Assays (Applied Biosystems) for PDL1 (CD274; Assay ID: Hs01125297_m1), ribonucleotide reductase (RR) M1 (Assay ID: Hs01040697_m1), and STAT3 (Assay ID: Hs01047586_g1). Each reaction consisted of 10 ng of cDNA, TaqMan Gene Expression Master Mix (Applied Biosystems), and TaqMan probes. The PCR cycling conditions were as follows: 95 °C for 10 min, followed by 40 cycles of 95 °C for 15 s and 60 °C for 60 s. The relative gene expression levels were calculated using the ΔΔCt method. GAPDH (Assay ID: Hs02758991_g1) was used as the endogenous control for normalization.
(§3) All RT-qPCR experiments were performed at least in triplicate. All data were expressed by plotting values with an average of four measurements for each treatment condition as the mean ± SD and analyzed with the software GraphPad Prism 9. Statistical analysis was performed using one-way analysis of variance (ANOVA) to compare the mean value of each treated type of cells versus the control (untreated cells). The statistical significance defined by the software for p values was **** < 0.0001, *** from 0.001 to 0.0001, ** from 0.001 to 0.01, * from 0.01 to 0.05, and non-significant (ns) ≥ 0.05.

A549 cells = assay: Mitochondrial ROS production assay (DHE, flow cytometry); settings: A549, IC25, 24 h; for Amount of mROS, on average of the three named triterpenes, compared to the untreated cells: group average
Method: (§4) We used flow cytometry to analyze several cellular mechanistic pathways in A549 cells after incubation with the triterpenes. In general, the cells were seeded in a 6-well plate at a density of 1 × 10^6 cells/mL and incubated for 24 h in supplemented DMEM. After 24 h, the A549 cells were treated with the triterpenes, following each manufacturer’s protocol. All of the following experiments were performed in a Muse® Cell Analyzer (EMD Millipore Corporation, Temecula, CA). The instrument was calibrated before each assay using the Muse® System Check Kit (Luminex MCH100101, Luminex Corporation). Each assay was run at least in two independent experiments. For each experiment, all samples were analyzed in triplicate in the instrument and the capillary line was washed after each sample run to avoid artifacts. In addition, to address the issue of cell doublets, we used the Muse® Cell Dispersal Reagent (Luminex Corporation) in all experiments. The concentration of the triterpenes in each assay was selected depending on the cellular concentration necessary to generate the gain signal in the instrument. This means that we attempted to select concentrations avoiding excessive cytotoxicity to accurately determine the respective signal from each assay.
The production of reactive oxygen species (ROS) by mitochondria was determined using the Oxidative Stress Kit (Luminex MCH100111, Luminex Corporation). After the A549 cells were treated with the triterpenes (IC25) for 24 h, the cells were scraped and centrifuged. For ROS, the cell pellet was incubated with dihydroethidium (DHE) dye for 1 h at 37 °C.

PDL1 gene = assay: RT-qPCR gene expression of PDL1; settings: for PDL1 gene expression (in words): A549, IC25 (CisPt 25 μM), 24 h
Method: as §1, §2, §3

NSCLC A549 cells = assay: MTS/PMS cell viability, A549; settings: for TI > 1: summary, MRC5 vs A549; on TI > 1: key: '✔' means induction; '-' means non-induction of any of the tested processes
Method: A similar procedure was performed to determine the IC50 of the triterpenes in a normal lung fibroblast cell line (MRC5). In brief, the A549 and MRC5 cells were seeded into 96-well plates at a density of 1 × 10^5 cells/mL in supplemented DMEM medium. […] Then, 10 uL of the MTS reagent from the CellTiter 96® Aqueous Non-Radioactive Cell Proliferation Assay (Promega G5421) was added to each well. Then, we incubated the plates at 37 °C and in a 5% CO2 atmosphere for 1 h. After incubation, the absorbance was measured at 492 nm (n = 8) in a microplate reader spectrophotometer (Thermoscientific Multiskan FC). The cell viability was calculated as follows:% Viability = (sample absorbance − sample media absorbance)/(untreated cells’ absorbance − untreated cells’ media absorbance) × 100
The cell viability data were presented by plotting the values with an average of eight measurements for each treatment (mean ± SD) in at least three independent experiments. The IC50 values were calculated with the GraphPad Prism 9 software (Prism 9; GraphPad by Dotmatics, San Diego, CA, USA) using the dose–response curve.

caspase 3 = assay: Caspase 3 activity assay (Apo-ONE Caspase-3/7); settings: for Caspase 3 activation (in words): A549, IC50, 24 h, vs untreated cells and CisPt
Method: The intrinsic apoptosis activity was evaluated by the quantification of caspase 3 enzymatic activity using the Apo-ONE® Homogeneous Caspase-3/7 Assay (Promega G7792). A549 cells were seeded in a concentration of 1 × 10^5 cells/mL into black 96-well plates with a clear bottom. […] After the completion of the incubation, 50 μL of Apo-ONE® Caspase-3/7 Reagent (1:100 rhodamine 110 bis-(N-CBZ-l-aspartyl-l-glutamyl-l-valyl-aspartic acid amide) (Z-DEVD-R110) substrate diluted in lysis buffer) was added to each well. The plate was gently mixed using a plate shaker at 150 rpm for 2 h at room temperature. Then, the fluorescence of each well was measured (Ex/Em = 485/530 nm) in the Tecan® M200 plate reader.
The caspase 3 activity experiments were performed in triplicate. All data were expressed by plotting the values with an average of three measurements for each treatment condition as the mean ± SD and analyzed with the software GraphPad Prism 9 (San Diego, CA, USA). Statistical analysis was performed using one-way analysis of variance (ANOVA) to compare the mean value of each type of treated cells versus the control (untreated cells). The statistical significance defined by the software for p values was **** < 0.0001, *** from 0.001 to 0.0001, ** from 0.001 to 0.01, * from 0.01 to 0.05, and non-significant (ns) ≥ 0.05.

[1] = tested on: DNA damage machinery in A549 cells; assay: DNA damage assay (anti-pH2AX / anti-pATM, flow cytometry); settings: A549, IC50, 24 h, vs untreated cells
Method: as §4
Then, the A549 cells were scraped and centrifuged. The pellet was suspended in the assay buffer from the Luminex MCH200107 kit (Luminex Corporation). […]

## C=C(C)[C@@H]1CC[C@]2(C(=O)O)CC[C@]3(C)[C@H](CC[C@@H]4[C@@]5(C)CC[C@H](O)C(C)(C)[C@@H]5CC[C@]43C)[C@@H]12 [BeA, betulinic acid]
STAT3 gene
  STAT3 gene expression (in words): superior in suppressing both genes
A549 cells; vs negative control
  mROS production (in words): largest level of mROS
A549 cells
  Amount of mROS, on average of the three named triterpenes, compared to the untreated cells: 26.2%
PDL1 gene
  PDL1 gene expression (in words): superior in suppressing both genes
NSCLC A549 cells
  TI: 1.27
NSCLC A549 cells; TI = MRC5 IC50/A549 IC50, >1 means higher selectivity
  TI: > 1

## C=C(C)[C@@H]1CC[C@]2(CO)CC[C@]3(C)[C@H](CC[C@@H]4[C@@]5(C)CC[C@H](O)C(C)(C)[C@@H]5CC[C@]43C)[C@@H]12 [Betu, betulin]
PDL1 gene
  PDL1 gene expression (in words): did not inhibit
PDL1 gene; summary, NSCLC A549 cells
  PDL1 downregulation: -
NSCLC A549 cells
  TI: 0.73
  TI > 1: -
NSCLC A549 cells; Homo sapiens, A549, 24 h, MTS/PMS
  IC50: 22 ± 1 µM
Caspase 3
  Caspase 3 activation (in words): higher caspase 3 activation than CisPt

## C=C(C)[C@@H]1CC[C@]2(C)CC[C@]3(C)[C@H](CC[C@@H]4[C@@]5(C)CC[C@H](O)C(C)(C)[C@@H]5CC[C@]43C)[C@@H]12 [Lupe, lupeol]
A549 cells
  Amount of mROS, on average of the three named triterpenes, compared to the untreated cells: 26.2%
NSCLC A549 cells
  TI: 1.26
Caspase 3; summary, NSCLC A549 cells
  Caspase 3 activation: -

## C[C@H]1[C@H](C)CC[C@]2(C(=O)O)CC[C@]3(C)C(=CC[C@@H]4[C@@]5(C)CC[C@H](O)C(C)(C)[C@@H]5CC[C@]43C)[C@H]12 [UrA, ursolic acid]
NSCLC A549 cells
  TI: 0.57
  TI > 1: -
Caspase 3
  Caspase 3 activation (in words): higher caspase 3 activation than CisPt; also recorded: highest
[1]
  Activation of the DNA damage machinery (in words): caused the activation of the DNA damage machinery
